Measured values taken from patent US9783572B2, “Synthesis of syrbactin proteasome inhibitors” (The Regents of the University of California, priority 2009, dated 2017).

Experiments:
[1] = test system: ubiquitinated proteins (proteasome activity) in REH cells; experiment: Western blot with anti-ubiquitin antibody in treated REH cells (FIG. 3); assay type: cell-based, human; conditions: increasing concentrations
Source text: An antibody against ubiquitin to reveal the presence of ubiquitinated proteins, which accumulate (and present as a smear, due to different molecular weights) in response to the inhibition of proteasome activity. Actin was used as a loading control.

[2] = test system: RPMI/8226 multiple myeloma cell line; experiment: Percent survival of cells, multiple myeloma versus leukemia line (FIG. 2); assay type: cell-based; conditions: FIG. 2, percent survival
Source text: Bortezomib (BZM), the first proteasome inhibitor to reach the clinic, is being used to treat patients with multiple myeloma and mantle cell lymphoma, and this is reflective of this agent's differential potency in different tumor cell types.

proteasome = experiment: Syringolin A treatment of a human neuroblastoma cell line; assay type: cell-based; conditions: 25 μM
Source text: They are members of a bioactive natural product family and includes the glidobactins/cepafungins now referred to as the syrbactins. Crystallography established that both syringolin A and B form a covalent adduct with the proteasome via conjugate addition of the N-terminal threonine hydroxyl group to their α,β-unsaturated lactams. Given the known properties of proteasome inhibitors, the action of syringolin A in cancer cells was investigated.

CC(C)C[C@H](NC(=O)[C@H](Cc1ccccc1)NC(=O)c1cnccn1)B(O)O [BZM, Bortezomib]
accumulation of ubiquitinated proteins [1]: substantial accumulation of ubiquitinated proteins
cytotoxicity in RPMI/8226 multiple myeloma cells compared with REH acute lymphocytic leukemia cells [2]: more cytotoxic to multiple myeloma cells

CC(C)[C@H](NC(=O)N[C@H](C(=O)N[C@H]1/C=C/CCNC(=O)/C=C/[C@H](C(C)C)NC1=O)C(C)C)C(=O)O [syringolin A]
accumulation of ubiquitinated proteins (proteasome): time-dependent accumulation of ubiquitinated proteins
proteasome activity (proteasome): dose-dependent decrease in proteasome activity
